# In the METLIN SMRT retention time set (Domingo-Almenara et al. 2019):
# Assay: gradient 5% acetonitrile 3 min, to 50% in 2 min, to 85% in 15 min, held 3 min, 100 µL/min
# Conditions: column: Zorbax Extend-C18 2.1 x 50 mm; eluents: water / acetonitrile, 0.1% formic acid
# Method in brief: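 Retention times of pure standards were taken from adduct peaks that were selected by computer and manually inspected. Over 3 months, mixtures of ~100 molecules were run by HPLC–quadrupole time-of-flight mass spectrometry in positive and negative ionization mode. The Zorbax Extend-C18 column (2.1 × 50 mm, 1.8 μm) ran at 100 μL/min in water and acetonitrile, each containing 0.1% formic acid, with 40 μL dead volume and 900 μL dwell volume.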
row,Structure (SMILES),RP-LC retention time [s]
1,CC(NC(=O)C(C)n1c2ccccc2c2cnn(C)c(=O)c21)C(=O)N1CCCCC1 (configuration not stated),764
2,O=c1oc2cc(O)c(O)cc2c2c1CCCC2,684
3,Cc1c(C(=O)NCc2ccco2)nnn1-c1ccc(Br)cc1,844
4,Cc1ccn2cc(CNS(=O)(=O)c3ccc(-c4ccccc4)cc3)nc2c1,588
5,COc1nn(C)cc1C(=O)Nc1nc(-c2cc(Cl)sc2Cl)cs1,1210
6,Cc1ccc(OCc2nnc(SCC(=O)Nc3nc(-c4ccccc4)c(C)s3)o2)cc1,1090
7,CC(C)n1nc2c(S(=O)(=O)N3CCCCC3)cccn2c1=O,803
8,Cc1cccc(NC(=O)C(=O)NCc2ccccn2)n1,565
9,O=C(NCCC1CCN(C(=O)Nc2ccc(F)cc2F)CC1)c1ccoc1,726
10,COCCCNC(=O)C1CCN(c2nc3ccc(-c4cccnc4)nc3s2)CC1,585
11,Cc1ccc(F)c(NC(=O)c2cn3c(n2)CSCC3)c1,811
12,COCCCNC(=O)c1ccc(-c2nc(CSc3ccccc3)c(C)o2)cc1,934
13,O=C(NCc1ccccc1Cl)c1nnc(-c2ccc(S(=O)(=O)N3CCOCC3)cc2)o1,888
14,CCCN1CCN(c2ncc3c(n2)CCN(Cc2ccc(OC(C)C)cc2)C3)CC1,581
15,Cc1ccc(C)c(NC(=O)N2CCCC(C)(C(=O)NCc3ccc(F)cc3)C2)c1 (configuration not stated),963
16,CCOc1ccc(NC(=O)Cn2c(CC)nc3cc4c(cc32)OCCO4)cc1,670
17,CCOc1ccc(NC(=O)N2C[C@@H](F)C[C@H]2C(=O)N2CCc3ccccc3C2)cc1,776
18,O=C(Nc1ccc(Cl)cc1)C1CCCN(S(=O)(=O)c2c[nH]c(C(=O)N3CCCCCC3)c2)C1 (configuration not stated),959
19,Cc1nc(-c2ccc(C(=O)NCc3cccnc3)cc2)cs1,612
20,O=C(NCc1ccc2c(c1)OCO2)C1CN(c2nc3c(F)cccc3s2)C1,776
21,CC(C)CCNC(=O)C1CCN(c2nccn3nc(-c4cccs4)cc23)CC1,1090
22,Cc1ccc(Cl)cc1NC(=O)CSc1nc(N2CCCCC2)nc2ccccc12,849

row,Structure (SMILES),RP-LC retention time [s]
1,Cc1ccc(Nc2nc(C(=O)NCCc3cnc[nH]3)nc3ccccc23)cc1,590
2,CCCOC(=O)C1=C(C)NC2=C(C(=O)C(C(=O)OC)C(C)C2)C1c1cccc(OC)c1 (configuration not stated),934
3,CCc1nn(C)c(=O)c2cc(S(=O)(=O)NC(C)c3ccccc3)cn12 (configuration not stated),870
4,Cc1nc(-c2csc(S(=O)(=O)N3CCCC(C(=O)NCc4cccs4)C3)c2)no1 (configuration not stated),847
5,CCc1ccc(CNC(=O)Cn2c(C)cc(-c3nnc(C4CCC4)o3)c2C)cc1,965
6,Cc1cc(C)c(NC(=O)Cn2cnc3nc(N4CCCC(C(=O)NC(C)C)C4)sc3c2=O)c(C)c1 (configuration not stated),728
7,CCN1C[C@]2(COC)CC[C@H](OC)[C@]34C5C[C@@H]6[C@@H](OC)C[C@@]7(OCOC7(C13)[C@@H](O)C24)C5[C@H]6OC (some centres not stated),614
8,O=C(NCCc1csc(C2CCN(C(=O)C3CC3)CC2)n1)C1CC1,640
9,COc1ccc(OC)c(CNC(=O)c2c(C)oc3c2C2=NCCN2C=N3)c1,638
10,O=C(c1c(F)cccc1F)N1CCc2nc(-c3ccc(Cl)cc3)ncc2C1,1100
11,Cc1ccc(N2CC(C(=O)NCCn3cnc(-c4ccccc4)cc3=O)CC2=O)cc1C (configuration not stated),689
12,COc1ccccc1-c1nnc(-c2cccc(S(=O)(=O)N(C)C)c2)o1,840
13,CC(C)CN(CC(C)C)C(=O)C1CCCN(c2ncnc3c2nc2n3CCCCC2)C1 (configuration not stated),1000
14,CC(=O)c1cccc(C(=O)N2CCC3(CC2)NC(=O)N(Cc2ccccc2)C3=O)c1,733
15,Cc1ccc(NC(=O)N2C[C@H](c3nc(-c4ccncc4)no3)[C@@H](C)C2)c(C)c1,797
16,O=C(Nc1ccccc1Cl)c1cn(CC2CCCO2)cc2c(=O)n(-c3ccccc3)nc1-2 (configuration not stated),1050
17,COc1ccc(CC(=O)NCC2CCN(C(=O)c3cc4ccccc4o3)CC2)cc1OC,703
18,CCOC(=O)N1CCN(c2cc(C(=O)O)c3cc(NC(=O)Cc4ccc(OC)cc4)ccc3n2)CC1,634
19,CCc1ccccc1N1C(=O)c2c(C(=O)OC)ncn2CC1(C)C(=O)NCc1ccccc1 (configuration not stated),735
20,CCCC(C)c1nnc(NC(=O)C2CCN(C(=O)c3cccc(F)c3)CC2)s1 (configuration not stated),831
21,COc1ccccc1NC(=O)CN1CCC(c2nc(-c3cccs3)no2)CC1,682
22,O=C(Cc1c(F)cccc1Cl)N1CC(c2nc(-c3ccccc3)no2)C1,900

row,Structure (SMILES),RP-LC retention time [s]
1,O=C(NCCN1CCCCC1)c1ccc2c(=O)n(-c3ccc(F)cc3)c(N3CCCC3)nc2c1,629
2,CCOc1ccccc1NC(=O)C1CCN(S(=O)(=O)c2c(C)nn(-c3ccccc3)c2C)CC1,1030
3,CC(=O)c1ccc(NC(=O)Cc2csc3nc(-c4ccc(C)c(C)c4)cn23)cc1,795
4,COCCNc1c(-c2ccc(C)cc2)nc2sc(C(=O)NC3CC3)c(C)n12,766
5,CCOC(=O)C1CCN(C(=O)CCC2CCCN(c3cc(NC4CC4)ncn3)C2)CC1 (configuration not stated),662
6,CCOC(=O)c1c(S(=O)(=O)NCc2ccccc2F)n[nH]c1C,728
7,Cc1ccc(-c2nc3cnccn3c2NCCC(=O)N2CCC(N3CCCCC3)CC2)cc1,598
8,CC1CCN(c2ccc(-c3noc(CN4CCN(c5ccccc5F)CC4)n3)cn2)CC1,1090
9,COc1ccc(-c2cc(N3CCC(NC(=O)c4cccc(Br)c4)C3)n[nH]2)cc1 (configuration not stated),738
10,O=C(Nc1ccc(Nc2cc(-n3ccnc3)ncn2)cc1)c1c[nH]c2ccccc12,562
11,CCOc1ccc(NC(=O)c2cnc(N3CCN(c4ccc(OC)cc4)CC3)nc2N)cc1,767
12,CCOC(=O)c1nc(Nc2cccc(OC)c2)c2ccccc2n1,854
13,CCN1CCn2cc(S(=O)(=O)Nc3cc(OC)ccc3OC)cc2C1=O,719
14,CCN1c2ccccc2C(=O)NC12CCN(C(=O)NCc1cccc(F)c1)CC2,740
15,COc1ccc(Nc2c(-c3ccc(C)cc3)nc3ncccn23)cc1,720
16,Cc1ccc(N2CCC(NC(=O)Nc3ccc(F)cc3)C2=O)cc1 (configuration not stated),846
17,O=C(Cn1cnc2ccccc2c1=O)N[C@@H](Cc1ccccc1)C(=O)O,671
18,Cc1ccc(C)c(CNC(=O)c2ccc3c(c2)nc2n3CCN(C(C)C)C2=O)c1,769
19,CN(C)c1nc2ncn3c(=O)n(CC(=O)Nc4cccc(F)c4)nc3c2s1,686
20,O=C(CCCCCCSc1ccc2ccccc2c1)NO,863
21,O=C(N1CCOCC1)C1(c2cc(-c3ccco3)on2)CC1,673
22,O=C(NC1CCN(Cc2ccccc2)CC1)C1CCCN(c2ncnc3c2nc2n3CCCCC2)C1 (configuration not stated),1050

row,Structure (SMILES),RP-LC retention time [s]
1,N#Cc1ccccc1CN1CCC2(CCC2O)CC1 (configuration not stated),565
2,CCN(C(=O)Cc1ccc(OC)cc1)c1nc(-c2ccccc2)cs1,1260
3,CN1C(=O)c2cc(S(=O)(=O)Nc3ccc4c(c3)OCCO4)ccc2Oc2cccnc21,826
4,NC(=O)c1cc(-c2ccccc2)sc1NC(=O)c1ccc([N+](=O)[O-])o1,883
5,CC1CCN(c2ccc(-c3noc(CN4C(=O)COc5ccccc54)n3)cc2)CC1,1260
6,COc1cccc(CNc2nc3ccncc3n(C(C)C)c2=O)c1OC,644
7,Cc1cc(NC(=O)C(=O)c2c[nH]c3ccccc23)ccc1Br,1120
8,COC(=O)c1ccc2c(=O)n(Cc3ccc(F)cc3)c(N3CCC(C(N)=O)CC3)nc2c1,777
9,O=C(CCNc1c(-c2ccc(F)cc2)nc2cnccn12)Nc1ccc2c(c1)OCO2,727
10,Cc1ccc(C2=NC3(CCN(C(=O)c4cnccn4)CC3)ON2)cc1,680
11,CCCNC(=O)C1CCCN(c2ccc(SCC(=O)NCCc3ccc(Cl)cc3)nn2)C1 (configuration not stated),676
12,COCc1nncn1C1CCN(S(=O)(=O)c2cc(Cl)ccc2OC)CC1,736
13,CCOc1ccc2ncc(C#N)c(Nc3cc(OC)c(OC)c(OC)c3)c2c1,607
14,O=S(=O)(Nc1ccc(F)cc1Cl)c1c[nH]c2ncccc12,740
15,Cc1ccccc1-c1nnc(CSc2nnc(NC(=O)CCc3ccccc3)s2)o1,977
16,Cc1cc2c(c(=O)n(-c3ccc(F)cc3)c(=O)n2CC(=O)Nc2cccc(C#N)c2)n1C,824
17,O=C1CC(c2noc(-c3ccc(Cl)cc3)n2)CN1c1ccc(F)cc1 (configuration not stated),1030
18,Cc1cc(Cl)ccc1NC(=O)N1CCC(n2cnnc2C2CC2)C1 (configuration not stated),661
19,O=C(NCc1cc(F)ccc1F)C1CN(S(=O)(=O)c2cccnc2)CC12CCCCC2 (configuration not stated),919
20,CCCc1noc(-c2cccnc2N2CCCN(Cc3cccc(C(F)(F)F)c3)CC2)n1,785
21,CCC(=O)N1CCc2sc(C(=O)N3CCN(c4ccccc4F)CC3)cc2C1,827
